{"source": "patent US8703725B2", "about": "“Nutritional compositions” (NESTEC S.A., priority 2002, dated 2014)", "tested_on": "muscle protein kinetics", "test": "Protein kinetics in muscle of rabbits infused with amino acid mixtures (surgical stress model)", "assay_type": "in vivo, New Zealand white rabbits", "settings": "rabbit, infusion, means ± SEM", "protocol": "To investigate the optimal mixture of free amino acids for stimulating net muscle protein synthesis a series of studies in New Zealand white rabbits weighing about 4.5 kg was performed. Net muscle protein balance was quantified by a technique analogous to the one used for human studies as described in Biolo et al, J Parent Enteral Nutr 16:305-315, 1992, which is hereby incorporated by reference, except that leg blood flow was measured by flow probe. This animal model is designed to represent a stress model induced by the surgical procedures needed to collect the samples and therefore is considered to be a good model for a seriously-ill […] patient. Different amino acid mixtures were infused into the rabbits, and the response of muscle quantified.\nThe groups were as follows:\nAA group: A balanced AA solution (10% TRAVASOL®) containing all amino acids (27.3 umol·kg^−1·min^−1)\nEAA group: Only essential amino acids (27.3 umol·kg^−1·min^−1)\nLeu (25%)+AA group: Leucine was added to the balanced AA solution to account for 25% of total nitrogen and infused at the same total nitrogen group as others (27.3 umol·kg^−1·min^−1)\nLeu (35%)+AA group: Same as above, except Leu comprised 35% of total\nLeu only: Leucine only at 8.3 umol·kg·min"}
{"smiles": "CC(C)C[C@H](N)C(=O)O", "note": "[Leu alone, Leucine]", "values": [{"measurement": "Protein kinetics in muscle: Breakdown", "value": "9.2 ± 0.5", "unit": "µmol/kg/min"}, {"measurement": "Protein kinetics in muscle: Net balance", "setting": "*p<0.05 vs control", "value": "-2.6 ± 0.3", "unit": "µmol/kg/min"}, {"measurement": "Protein kinetics in muscle: Synthesis", "setting": "*p<0.05 vs control", "value": "6.6 ± 0.7", "unit": "µmol/kg/min"}]}
